Laboratory results published in patent US20120122860A1, “SOLID FORMS OF SULFONAMIDES AND AMINO ACIDS” (Plexxikon, Inc., priority 2009, published 2012).

Key:
Kdr = Kdr (Homo sapiens, UniProt P35968); assay: Kinase activity assay, Kdr
B-Raf V600E = B-Raf V600E (Homo sapiens, UniProt P15056, V600E); assay: Kinase activity assay, B-Raf V600E; format: biochemical; settings: read-out: activity toward kinase B-Raf V600E, IC50
Src = Src (Homo sapiens, UniProt P12931); assay: Kinase activity assay, Src
B-Raf = B-Raf (Homo sapiens, UniProt P15056); assay: Kinase activity assay, B-Raf; format: biochemical; settings: read-out: activity toward kinase B-Raf, IC50
Chain of B-Raf (P15056 whole entry): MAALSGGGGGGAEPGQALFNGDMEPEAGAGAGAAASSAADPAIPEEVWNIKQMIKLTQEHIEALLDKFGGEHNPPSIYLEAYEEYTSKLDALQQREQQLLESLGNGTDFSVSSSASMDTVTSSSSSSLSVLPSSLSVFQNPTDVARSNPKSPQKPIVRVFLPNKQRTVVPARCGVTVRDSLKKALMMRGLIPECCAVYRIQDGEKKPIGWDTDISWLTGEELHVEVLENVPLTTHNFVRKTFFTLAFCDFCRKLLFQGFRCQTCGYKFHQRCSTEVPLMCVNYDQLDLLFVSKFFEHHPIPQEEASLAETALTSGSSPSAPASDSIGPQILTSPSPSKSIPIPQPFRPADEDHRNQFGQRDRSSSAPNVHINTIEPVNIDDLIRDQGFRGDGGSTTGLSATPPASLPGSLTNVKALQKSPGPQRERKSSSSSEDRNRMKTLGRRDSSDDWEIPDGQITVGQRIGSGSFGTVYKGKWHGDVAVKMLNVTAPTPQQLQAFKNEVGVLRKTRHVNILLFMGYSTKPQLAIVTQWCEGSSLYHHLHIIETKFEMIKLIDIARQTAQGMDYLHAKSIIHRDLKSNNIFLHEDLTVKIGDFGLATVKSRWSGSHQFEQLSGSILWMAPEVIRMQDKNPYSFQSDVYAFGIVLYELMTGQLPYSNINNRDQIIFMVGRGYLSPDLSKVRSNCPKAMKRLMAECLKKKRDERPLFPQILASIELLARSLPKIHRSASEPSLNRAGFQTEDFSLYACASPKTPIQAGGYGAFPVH

Kit = Kit (Homo sapiens, UniProt P10721); assay: Kinase activity assay, Kit
Chain of Kit (P10721 26-976): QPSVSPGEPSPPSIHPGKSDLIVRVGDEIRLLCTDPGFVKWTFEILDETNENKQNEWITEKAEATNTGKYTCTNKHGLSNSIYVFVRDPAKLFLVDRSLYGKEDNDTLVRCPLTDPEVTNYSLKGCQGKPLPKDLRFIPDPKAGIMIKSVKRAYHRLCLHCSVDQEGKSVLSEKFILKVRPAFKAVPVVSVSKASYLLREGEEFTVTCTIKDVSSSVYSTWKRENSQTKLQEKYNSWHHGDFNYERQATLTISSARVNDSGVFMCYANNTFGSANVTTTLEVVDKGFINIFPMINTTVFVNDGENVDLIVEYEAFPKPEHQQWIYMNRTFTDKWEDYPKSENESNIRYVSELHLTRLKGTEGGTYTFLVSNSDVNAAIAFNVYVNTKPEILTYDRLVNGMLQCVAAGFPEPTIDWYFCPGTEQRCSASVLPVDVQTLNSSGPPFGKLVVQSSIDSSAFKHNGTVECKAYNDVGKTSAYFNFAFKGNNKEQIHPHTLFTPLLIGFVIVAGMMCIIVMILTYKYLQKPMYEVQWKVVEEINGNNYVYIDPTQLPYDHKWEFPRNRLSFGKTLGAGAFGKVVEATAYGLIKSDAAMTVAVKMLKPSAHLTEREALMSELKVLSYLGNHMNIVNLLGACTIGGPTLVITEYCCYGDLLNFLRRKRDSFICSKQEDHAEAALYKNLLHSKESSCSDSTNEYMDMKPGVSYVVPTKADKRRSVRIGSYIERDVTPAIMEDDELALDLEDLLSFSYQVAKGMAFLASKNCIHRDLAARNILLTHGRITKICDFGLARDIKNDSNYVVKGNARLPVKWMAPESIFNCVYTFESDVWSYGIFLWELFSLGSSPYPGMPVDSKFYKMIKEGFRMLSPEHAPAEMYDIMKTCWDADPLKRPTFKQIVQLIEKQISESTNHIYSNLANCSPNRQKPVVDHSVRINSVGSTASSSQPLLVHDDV

Fms = Fms (Homo sapiens, UniProt P07333); assay: Kinase activity assay, Fms
Chain of Fms (P07333 20-972): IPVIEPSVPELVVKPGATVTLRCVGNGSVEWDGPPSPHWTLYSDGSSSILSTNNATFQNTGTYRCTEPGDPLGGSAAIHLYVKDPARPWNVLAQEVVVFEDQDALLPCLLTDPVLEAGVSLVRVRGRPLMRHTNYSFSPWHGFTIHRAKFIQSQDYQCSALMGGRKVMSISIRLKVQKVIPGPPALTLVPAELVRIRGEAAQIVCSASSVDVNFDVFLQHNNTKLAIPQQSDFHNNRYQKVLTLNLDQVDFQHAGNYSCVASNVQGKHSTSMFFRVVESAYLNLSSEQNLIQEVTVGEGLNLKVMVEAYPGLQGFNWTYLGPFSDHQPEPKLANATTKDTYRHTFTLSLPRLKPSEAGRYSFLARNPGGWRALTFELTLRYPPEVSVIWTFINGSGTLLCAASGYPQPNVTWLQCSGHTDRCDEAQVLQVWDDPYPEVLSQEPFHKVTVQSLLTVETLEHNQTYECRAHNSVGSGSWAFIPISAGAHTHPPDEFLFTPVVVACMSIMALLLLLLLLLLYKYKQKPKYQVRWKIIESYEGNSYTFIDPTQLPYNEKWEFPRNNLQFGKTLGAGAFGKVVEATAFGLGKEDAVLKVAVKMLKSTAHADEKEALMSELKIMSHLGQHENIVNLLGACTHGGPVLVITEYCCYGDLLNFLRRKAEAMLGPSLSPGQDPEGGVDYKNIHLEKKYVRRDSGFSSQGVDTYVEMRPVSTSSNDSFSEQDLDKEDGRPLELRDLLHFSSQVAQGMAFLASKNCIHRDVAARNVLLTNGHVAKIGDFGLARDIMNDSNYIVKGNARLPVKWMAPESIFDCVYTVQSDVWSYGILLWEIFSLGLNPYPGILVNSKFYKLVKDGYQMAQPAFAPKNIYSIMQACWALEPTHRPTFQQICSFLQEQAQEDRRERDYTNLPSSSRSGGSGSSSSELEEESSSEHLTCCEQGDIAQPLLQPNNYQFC

C-Raf = C-Raf (Homo sapiens, UniProt P04049); assay: Kinase activity assay, C-Raf

Chain of B-Raf V600E (P15056 whole entry V600E): as the sequence (P15056 whole entry) above, with V600E counted along it
Chain of Kdr (P35968 20-1356): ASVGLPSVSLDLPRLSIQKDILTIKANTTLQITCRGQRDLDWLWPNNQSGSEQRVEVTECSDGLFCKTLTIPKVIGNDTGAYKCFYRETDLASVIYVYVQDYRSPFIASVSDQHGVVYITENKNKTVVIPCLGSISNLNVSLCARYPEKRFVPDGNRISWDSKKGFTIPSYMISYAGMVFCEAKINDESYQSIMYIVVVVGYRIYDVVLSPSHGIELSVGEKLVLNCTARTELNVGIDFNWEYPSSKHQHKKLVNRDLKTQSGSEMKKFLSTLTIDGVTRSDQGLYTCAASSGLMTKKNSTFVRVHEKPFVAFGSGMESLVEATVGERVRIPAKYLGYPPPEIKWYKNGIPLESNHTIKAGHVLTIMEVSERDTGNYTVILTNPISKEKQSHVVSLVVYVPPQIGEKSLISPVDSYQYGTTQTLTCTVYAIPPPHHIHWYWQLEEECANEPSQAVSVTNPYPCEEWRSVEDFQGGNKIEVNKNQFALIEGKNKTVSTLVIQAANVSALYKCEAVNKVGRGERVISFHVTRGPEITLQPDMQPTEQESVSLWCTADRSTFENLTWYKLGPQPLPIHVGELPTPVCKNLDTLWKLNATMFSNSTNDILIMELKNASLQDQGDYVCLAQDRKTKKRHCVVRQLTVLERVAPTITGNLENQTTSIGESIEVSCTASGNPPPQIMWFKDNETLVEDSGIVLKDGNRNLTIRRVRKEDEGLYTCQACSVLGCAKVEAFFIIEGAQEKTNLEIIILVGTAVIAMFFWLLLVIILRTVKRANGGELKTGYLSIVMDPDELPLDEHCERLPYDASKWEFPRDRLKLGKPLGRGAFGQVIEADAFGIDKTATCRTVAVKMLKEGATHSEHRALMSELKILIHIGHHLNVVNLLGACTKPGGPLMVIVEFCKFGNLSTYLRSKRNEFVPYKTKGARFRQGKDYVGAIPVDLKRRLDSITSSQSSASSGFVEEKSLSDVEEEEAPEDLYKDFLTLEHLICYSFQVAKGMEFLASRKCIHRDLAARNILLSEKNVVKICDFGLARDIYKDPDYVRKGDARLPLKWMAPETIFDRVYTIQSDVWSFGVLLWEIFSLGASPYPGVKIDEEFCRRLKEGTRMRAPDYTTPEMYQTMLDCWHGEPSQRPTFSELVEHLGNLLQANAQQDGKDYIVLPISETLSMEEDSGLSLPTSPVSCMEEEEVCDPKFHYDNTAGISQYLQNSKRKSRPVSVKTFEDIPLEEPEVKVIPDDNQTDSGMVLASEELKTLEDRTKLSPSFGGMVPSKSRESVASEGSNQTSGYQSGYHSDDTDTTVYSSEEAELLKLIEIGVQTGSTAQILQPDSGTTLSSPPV
Chain of Src (P12931 whole entry): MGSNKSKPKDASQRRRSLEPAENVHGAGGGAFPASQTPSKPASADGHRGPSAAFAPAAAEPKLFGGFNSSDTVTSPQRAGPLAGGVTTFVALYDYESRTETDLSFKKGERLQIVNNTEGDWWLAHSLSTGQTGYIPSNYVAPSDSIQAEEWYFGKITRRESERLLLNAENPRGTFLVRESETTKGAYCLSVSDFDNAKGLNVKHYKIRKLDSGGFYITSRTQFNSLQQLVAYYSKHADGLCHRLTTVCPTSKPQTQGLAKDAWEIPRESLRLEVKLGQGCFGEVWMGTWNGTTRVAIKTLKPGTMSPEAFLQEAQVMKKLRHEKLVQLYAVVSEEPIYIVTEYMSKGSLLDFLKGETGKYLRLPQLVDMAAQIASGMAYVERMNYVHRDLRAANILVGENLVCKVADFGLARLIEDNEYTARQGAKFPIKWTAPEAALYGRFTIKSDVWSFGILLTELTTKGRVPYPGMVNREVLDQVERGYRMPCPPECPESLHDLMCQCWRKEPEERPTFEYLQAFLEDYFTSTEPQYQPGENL

SMILES | IC50 (Kdr) | IC50 (B-Raf V600E) | IC50 (Src) | IC50 (B-Raf) | IC50 (Kit) | IC50 (Fms) | IC50 (C-Raf)
O=C(c1cccc(NS(=O)(=O)c2cccc(OC(F)(F)F)c2)c1)c1c[nH]c2ncc(Cl)cc12 [P-2124, N-[3-(5-Chloro-1H-pyrrolo[2,3-b]pyridine-3-carbonyl)-phenyl]-3-trifluoromethoxy-benzenesulfonamide] | ≤ 10 µM | – | – | – | ≤ 10 µM | ≤ 10 µM | –
O=C(c1cccc(NS(=O)(=O)c2cccc(F)c2)c1)c1c[nH]c2ncc(Cl)cc12 [P-2127, N-[3-(5-Chloro-1H-pyrrolo[2,3-b]pyridine-3-carbonyl)-phenyl]-3-fluoro-benzenesulfonamide] | ≤ 10 µM | ≤ 10 µM | – | ≤ 10 µM | ≤ 10 µM | ≤ 10 µM | –
O=C(c1cc(NS(=O)(=O)c2cccc(OC(F)(F)F)c2)ccc1F)c1c[nH]c2ncc(Cl)cc12 [P-2110, N-[3-(5-Chloro-1H-pyrrolo[2,3-b]pyridine-3-carbonyl)-4-fluoro-phenyl]-3-trifluoromethoxy-benzenesulfonamide] | ≤ 10 µM | ≤ 10 µM | – | ≤ 10 µM | ≤ 10 µM | ≤ 10 µM | –
CCCCS(=O)(=O)Nc1ccc(F)c(C(=O)c2c[nH]c3ncccc23)c1 [P-2438, Butane-1-sulfonic acid [4-fluoro-3-(1H-pyrrolo[2,3-b]pyridine-3-carbonyl)-phenyl]-amide] | ≤ 10 µM | – | – | – | ≤ 10 µM | ≤ 10 µM | –
O=C(c1cccc(NS(=O)(=O)c2cccc(Cl)c2)c1)c1c[nH]c2ncc(Cl)cc12 [P-2125, 3-Chloro-N-[3-(5-chloro-1H-pyrrolo[2,3-b]pyridine-3-carbonyl)-phenyl]-benzenesulfonamide] | ≤ 10 µM | – | – | – | ≤ 10 µM | ≤ 10 µM | –
O=C(c1cc(NS(=O)(=O)c2ccc(Cl)cc2)ccc1F)c1c[nH]c2ncc(Cl)cc12 [P-2106, 4-Chloro-N-[3-(5-chloro-1H-pyrrolo[2,3-b]pyridine-3-carbonyl)-4-fluoro-phenyl]-benzenesulfonamide] | ≤ 10 µM | – | – | ≤ 10 µM | ≤ 10 µM | ≤ 10 µM | –
Cc1oncc1S(=O)(=O)Nc1cccc(C(=O)c2c[nH]c3ncc(C#N)cc23)c1F [P-2088, 5-Methyl-isoxazole-4-sulfonic acid [3-(5-cyano-1H-pyrrolo[2,3-b]pyridine-3-carbonyl)-2-fluoro-phenyl]-amide] | ≤ 10 µM | ≤ 10 µM | – | – | ≤ 10 µM | ≤ 10 µM | ≤ 10 µM
CC(C)CS(=O)(=O)Nc1ccc(F)c(C(=O)c2c[nH]c3ncc(Br)cc23)c1F [P-2296, 2-Methyl-propane-1-sulfonic acid [3-(5-bromo-1H-pyrrolo[2,3-b]pyridine-3-carbonyl)-2,4-difluoro-phenyl]-amide] | ≤ 10 µM | ≤ 10 µM | ≤ 10 µM | – | ≤ 10 µM | ≤ 10 µM | –
O=C(c1cccc(NS(=O)(=O)c2ccc(Cl)cc2)c1)c1c[nH]c2ncc(Cl)cc12 [P-2128, 4-Chloro-N-[3-(5-chloro-1H-pyrrolo[2,3-b]pyridine-3-carbonyl)-phenyl]-benzenesulfonamide] | ≤ 10 µM | – | – | ≤ 10 µM | ≤ 10 µM | ≤ 10 µM | –
O=C(c1cc(NS(=O)(=O)C2CC2)ccc1F)c1c[nH]c2ncc(Cl)cc12 [P-2436, Cyclopropanesulfonic acid [3-(5-chloro-1H-pyrrolo[2,3-b]pyridine-3-carbonyl)-4-fluoro-phenyl]-amide] | ≤ 10 µM | ≤ 10 µM | – | – | ≤ 10 µM | ≤ 10 µM | –

The next lines start with the values.

IC50 (Kdr) | IC50 (B-Raf V600E) | IC50 (Src) | IC50 (B-Raf) | IC50 (Kit) | IC50 (Fms) | IC50 (C-Raf) | SMILES
≤ 10 µM | ≤ 10 µM | ≤ 10 µM | ≤ 10 µM | ≤ 10 µM | ≤ 10 µM | – | CCCS(=O)(=O)Nc1ccc(F)c(C(=O)c2c[nH]c3ncc(-c4nccn4C)cc23)c1F [P-2153, Propane-1-sulfonic acid {2,4-difluoro-3-[5-(1-methyl-1H-imidazol-2-yl)-1H-pyrrolo[2,3-b]pyridine-3-carbonyl]-phenyl}-amide]
– | – | – | ≤ 10 µM | ≤ 10 µM | ≤ 10 µM | – | O=C(c1cc(NS(=O)(=O)c2ccc(C(F)(F)F)cc2)ccc1F)c1c[nH]c2ncc(Cl)cc12 [P-2112, N-[3-(5-Chloro-1H-pyrrolo[2,3-b]pyridine-3-carbonyl)-4-fluoro-phenyl]-4-trifluoromethyl-benzenesulfonamide]
≤ 10 µM | ≤ 10 µM | ≤ 10 µM | – | ≤ 10 µM | ≤ 10 µM | – | CCCS(=O)(=O)Nc1ccc(F)c(C(=O)c2c[nH]c3ncc(-c4cccc(NS(C)(=O)=O)c4)cc23)c1F [P-2169, Propane-1-sulfonic acid {2,4-difluoro-3-[5-(3-methanesulfonylamino-phenyl)-1H-pyrrolo[2,3-b]pyridine-3-carbonyl]-phenyl}-amide]
≤ 10 µM | ≤ 10 µM | – | ≤ 10 µM | ≤ 10 µM | ≤ 10 µM | – | CCCS(=O)(=O)Nc1ccc(F)c(C(=O)c2c[nH]c3ncc(-c4ccc(S(C)(=O)=O)cc4)cc23)c1F [P-2183, Propane-1-sulfonic acid {2,4-difluoro-3-[5-(4-methanesulfonyl-phenyl)-1H-pyrrolo[2,3-b]pyridine-3-carbonyl]-phenyl}-amide]
≤ 10 µM | ≤ 10 µM | – | – | ≤ 10 µM | ≤ 10 µM | – | CCCCS(=O)(=O)Nc1ccc(F)c(C(=O)c2c[nH]c3ncc(Cl)cc23)c1 [P-2435, Butane-1-sulfonic acid [3-(5-chloro-1H-pyrrolo[2,3-b]pyridine-3-carbonyl)-4-fluoro-phenyl]-amide]
≤ 10 µM | ≤ 10 µM | – | – | ≤ 10 µM | ≤ 10 µM | – | O=C(c1c(F)ccc(NS(=O)(=O)C2CC2)c1F)c1c[nH]c2ncc(Br)cc12 [P-2348, Cyclopropanesulfonic acid [3-(5-bromo-1H-pyrrolo[2,3-b]pyridine-3-carbonyl)-2,4-difluoro-phenyl]-amide]
– | – | – | ≤ 10 µM | ≤ 10 µM | ≤ 10 µM | – | O=C(c1cccc(NS(=O)(=O)c2ccc(OC(F)(F)F)cc2)c1)c1c[nH]c2ncc(Cl)cc12 [P-2123, N-[3-(5-Chloro-1H-pyrrolo[2,3-b]pyridine-3-carbonyl)-phenyl]-4-trifluoromethoxy-benzenesulfonamide]
≤ 10 µM | – | – | – | ≤ 10 µM | ≤ 10 µM | – | CCCS(=O)(=O)Nc1ccc(F)c(C(=O)c2c[nH]c3ncc(C#CCN(CC)CC)cc23)c1F [P-2241, Propane-1-sulfonic acid {3-[5-(3-diethylamino-prop-1-ynyl)-1H-pyrrolo[2,3-b]pyridine-3-carbonyl]-2,4-difluoro-phenyl}-amide]
≤ 10 µM | ≤ 10 µM | – | ≤ 10 µM | ≤ 10 µM | ≤ 10 µM | – | CCCS(=O)(=O)Nc1ccc(F)c(C(=O)c2c[nH]c3ncc(-c4ncc(C)n4C)cc23)c1F [P-2152, Propane-1-sulfonic acid {3-[5-(1,5-dimethyl-1H-imidazol-2-yl)-1H-pyrrolo[2,3-b]pyridine-3-carbonyl]-2,4-difluoro-phenyl}-amide]
≤ 10 µM | ≤ 10 µM | – | ≤ 10 µM | ≤ 10 µM | ≤ 10 µM | – | O=C(c1cc(NS(=O)(=O)c2cccc(C(F)(F)F)c2)ccc1F)c1c[nH]c2ncc(Cl)cc12 [P-2108, N-[3-(5-Chloro-1H-pyrrolo[2,3-b]pyridine-3-carbonyl)-4-fluoro-phenyl]-3-trifluoromethyl-benzenesulfonamide]
≤ 10 µM | ≤ 10 µM | ≤ 10 µM | ≤ 10 µM | ≤ 10 µM | ≤ 10 µM | – | CCCS(=O)(=O)Nc1ccc(F)c(C(=O)c2c[nH]c3ncc(-c4ccc(C)nc4F)cc23)c1F [P-2172, Propane-1-sulfonic acid {2,4-difluoro-3-[5-(2-fluoro-6-methyl-pyridin-3-yl)-1H-pyrrolo[2,3-b]pyridine-3-carbonyl]-phenyl}-amide]
≤ 10 µM | ≤ 10 µM | – | – | ≤ 10 µM | ≤ 10 µM | – | CCCCS(=O)(=O)Nc1cccc(C(=O)c2c[nH]c3ncc(Cl)cc23)c1 [P-2450, Butane-1-sulfonic acid [3-(5-chloro-1H-pyrrolo[2,3-b]pyridine-3-carbonyl)-phenyl]-amide]
≤ 10 µM | ≤ 10 µM | ≤ 10 µM | – | ≤ 10 µM | ≤ 10 µM | – | CCCS(=O)(=O)Nc1ccc(F)c(C(=O)c2c[nH]c3ncc(-c4cccnc4F)cc23)c1F [P-2164, Propane-1-sulfonic acid {2,4-difluoro-3-[5-(2-fluoro-pyridin-3-yl)-1H-pyrrolo[2,3-b]pyridine-3-carbonyl]-phenyl}-amide]
≤ 10 µM | ≤ 10 µM | – | ≤ 10 µM | ≤ 10 µM | ≤ 10 µM | – | CCCS(=O)(=O)Nc1cccc(C(=O)c2c[nH]c3ncc(C(=O)OCC)cc23)c1F [P-2406, 3-[2-Fluoro-3-(propane-1-sulfonylamino)-benzoyl]-1H-pyrrolo[2,3-b]pyridine-5-carboxylic acid ethyl ester]
≤ 10 µM | – | – | – | ≤ 10 µM | ≤ 10 µM | – | O=C(c1cccc(NS(=O)(=O)C2CC2)c1)c1c[nH]c2ncc(Cl)cc12 [P-2451, Cyclopropanesulfonic acid [3-(5-chloro-1H-pyrrolo[2,3-b]pyridine-3-carbonyl)-phenyl]-amide]
